In publication PMC10338470, “Phase 1 study of GSK3368715, a type I PRMT inhibitor, in patients with advanced solid tumors” (British Journal of Cancer, 2023):

Assays:
[1] = Plasma pharmacokinetics (LC-MS-MS, noncompartmental analysis); assay type: in vivo, human; conditions: for AUC0-24, geometric mean (%CVb) / Cmax, geometric mean (%CVb) / t1/2, geometric mean (%CVb) / tmax, median (range): plasma
Method: In both the dose-escalation and PK/PD cohorts, plasma samples for PK analysis were obtained following dosing on day 1 and pre- and postdose on days 2, 3, 4, 8, 15, 16, 22, and predose every 4 weeks thereafter. Plasma concentrations for GSK3368715 and its metabolites (GSK3963583, GSK3983164, and GSK3510519) were quantified using a validated ultra high-performance liquid chromatography-mass spectrometry-mass spectrometry (LC-MS-MS) method. PK parameters were analyzed using noncompartmental methods.
Adverse events and DLTs were summarized descriptively by dose cohort. Pharmacokinetic parameters of GSK3368715 and its metabolites (GSK3963583 and GSK3983164) were estimated in the PK/PD population (all participants for whom a PK sample was obtained) using a noncompartmental analysis model (WinNonlin version 8.1) and summarized descriptively. Best overall response as per RECIST 1.1 was summarized descriptively by dose cohort. Levels of tumor cell and plasma pharmacodynamic biomarkers were also summarized descriptively.

[2] = test system: ADMA-R225-hnRNP-A1 in PBMCs; test: ADMA-R225-hnRNP-A1 in PBMCs (LC-MS), target engagement; assay type: in vivo, human
Method: (§1) Tumor cell and plasma target engagement PD biomarkers were assessed in the dose-escalation cohort on days 1, 8, 15, and 22. In the PK/PD cohort, urine for PK and metabolite profiling was collected postdose on day 1 and through 48 h postdose on day 2, and for 24 h postdose on day 15. Participants underwent an on-treatment tumor biopsy on day 15. Asymmetric arginine 225 (R225) methylation of heterogeneous nuclear ribonucleoprotein A1 (hnRNP-A1) was identified as a target engagement PD of type I PRMT inhibition; treatment with GSK3368715 results in the reduction of asymmetric dimethylarginine 225 (ADMA-R225) on hnRNP-A1 protein in cancer cell lines and peripheral blood mononuclear cells (PBMCs). Noto et al. describe in detail the identification of hnRNP-A1 as a pharmacodynamic biomarker of type I PRMT inhibition, and the development of novel methodologies to accurately and precisely quantitate changes in the levels of ADMA on hnRNP-A1 in both blood and tumor compartments. Levels of ADMA-R225-hnRNP-A1 were measured in fresh frozen and formalin-fixed paired biopsies by liquid chromatography-mass spectrometry (LC-MS) and immunohistochemistry (IHC).
To measure the ADMA-R225-hnRNP-A1 in the PBMCs, blood was collected using the standard technique for BD Vacutainer® Evacuated Blood Collection Tubes. The PBMC aspirate prepared was used for the ADMA analyses as previously described by the LC-MS method.

[3] = test system: circulating free ADMA, cfMMA, cfSDMA; test: Plasma circulating free ADMA, MMA and SDMA; assay type: in vivo, human; conditions: day 15
Method: as §1

[4] = test system: ADMA-R225-hnRNP-A1 in tumor biopsies; test: Tumor biopsy ADMA-R225-hnRNP-A1 by LC-MS (fresh frozen); assay type: in vivo, human; conditions: 100-mg dose level, day 15
Method: as §1

[5] = test system: ADMA-R225-hnRNP-A1 in tumor biopsies; test: Tumor biopsy ADMA-R225-hnRNP-A1 by IHC (formalin-fixed); assay type: in vivo, human; conditions: 100-mg dose level, day 15; in 4/8 patients
Method: as §1

[6] = Safety margins of starting dose from toxicity studies in dogs; assay type: in vivo; conditions: 50 mg starting dose
global ADMA levels = test system: global ADMA levels; parameters: method as in PMID 31257072; conditions: preclinical cancer models ref [6]; cited from earlier work
lymphomas = test system: lymphomas; parameters: method as in PMID 31257072; conditions: lymphomas ref [6]; cited from earlier work
[7] = test system: acute myeloid leukemia (AML) cell lines; parameters: method as in PMID 31257072; conditions: acute myeloid leukemia (AML) cell lines ref [6]; cited from earlier work
[8] = in vivo; cited from earlier work
[9] = GSK3368715 50-mg dose escalation cohort, Day 1
[10] = GSK3368715 50-mg dose escalation cohort, Day 15
[11] = GSK3368715 100-mg PK/PD cohort, Day 1
[12] = GSK3368715 100-mg PK/PD cohort, Day 15
[13] = GSK3368715 100-mg dose escalation cohort, Day 1
[14] = GSK3368715 100-mg dose escalation cohort, Day 15
[15] = GSK3368715 100-mg total, Day 15

For `CCOCC1(COCC)CCC(c2[nH]ncc2CN(C)CCNC)CC1` [GSK3368715], the “Increase of Cmax and AUC0−24 with dose” value ([1]; dose range studied (50-200 mg)) was “dose proportional”, the “PK variability (%CVb)” value ([1]; in vivo) was “high PK variability” and the “AUC0-24, geometric mean (%CVb)” value ([1]; GSK3368715 200 mg, Day 1) was 1274.7 (43.8) h•ng/mL. For the same compound, the “Cmax, geometric mean (%CVb)” value ([1]; GSK3368715 200 mg, Day 1) was 336.8 (72.6) ng/mL, the “t1/2, geometric mean (%CVb)” value ([1]; GSK3368715 200 mg, Day 1) was 15.9 h and the “tmax, median (range)” value ([1]; GSK3368715 200 mg, Day 1) was 1.1 (0.4, 3.1) h. The “AUC0-24, geometric mean (%CVb)” value ([1]; GSK3368715 200 mg, Day 15) was 4861.4 (45.3) h•ng/mL, the “Cmax, geometric mean (%CVb)” value ([1]; GSK3368715 200 mg, Day 15) was 729.2 (42.8) ng/mL and the “t1/2, geometric mean (%CVb)” value ([1]; GSK3368715 200 mg, Day 15) was 2.9 (43.5) h. For the same compound, the “tmax, median (range)” value ([1]; GSK3368715 200 mg, Day 15) was 1.0 (0.5, 3.1) h, the “AUC0-24, geometric mean (%CVb)” value [1, 9] was 259.5 (--) h•ng/mL and the “Cmax, geometric mean (%CVb)” value [1, 9] was 107.2 (48.8) ng/mL. The “tmax, median (range)” value [1, 9] was 0.28 (0.25, 1.1) h, the “AUC0-24, geometric mean (%CVb)” value [1, 10] was 581.9 (101.4) h•ng/mL and the “Cmax, geometric mean (%CVb)” value [1, 10] was 111.9 (48.5) ng/mL. The “tmax, median (range)” value [1, 10] was 3.0 (0.5, 3.1) h, the “AUC0-24, geometric mean (%CVb)” value [1, 11] was 937.6 (30.9) h•ng/mL and the “Cmax, geometric mean (%CVb)” value [1, 11] was 237.6 (62.3) ng/mL. The “t1/2, geometric mean (%CVb)” value [1, 11] was 8.8 (--) h, the “tmax, median (range)” value [1, 11] was 0.5 (0.3, 3.1) h and the “AUC0-24, geometric mean (%CVb)” value [1, 12] was 1628.8 (60.4) h•ng/mL. For the same compound, the “Cmax, geometric mean (%CVb)” value [1, 12] was 382.7 (67.4) ng/mL, the “t1/2, geometric mean (%CVb)” value [1, 12] was 1.4 (--) h and the “tmax, median (range)” value [1, 12] was 1.0 (0.5, 2.1) h. For the same compound, the “AUC0-24, geometric mean (%CVb)” value [1, 13] was 1020.7 (26.7) h•ng/mL, the “Cmax, geometric mean (%CVb)” value [1, 13] was 145.0 (207.3) ng/mL and the “t1/2, geometric mean (%CVb)” value [1, 13] was 7.2 (--) h. The “tmax, median (range)” value [1, 13] was 0.5 (0.3, 3.1) h, the “AUC0-24, geometric mean (%CVb)” value [1, 14] was 1479.6 (79.7) h•ng/mL and the “Cmax, geometric mean (%CVb)” value [1, 14] was 362.9 (115.9) ng/mL. The “t1/2, geometric mean (%CVb)” value [1, 14] was 1.8 (--) h, the “tmax, median (range)” value [1, 14] was 0.9 (0.5, 1.1) h and the “AUC0-24, geometric mean (%CVb)” value ([1]; GSK3368715 100-mg total, Day 1) was 972.3 (27.1) h•ng/mL. The “Cmax, geometric mean (%CVb)” value ([1]; GSK3368715 100-mg total, Day 1) was 197.4 (112.1) ng/mL, the “t1/2, geometric mean (%CVb)” value ([1]; GSK3368715 100-mg total, Day 1) was 7.9 h and the “tmax, median (range)” value ([1]; GSK3368715 100-mg total, Day 1) was 0.5 (0.3, 3.1) h. For the same compound, the “AUC0-24, geometric mean (%CVb)” value [1, 15] was 1573.8 (64.2) h•ng/mL, the “Cmax, geometric mean (%CVb)” value [1, 15] was 375.5 (79.9) ng/mL and the “t1/2, geometric mean (%CVb)” value [1, 15] was 1.6 (15.6) h. The “tmax, median (range)” value [1, 15] was 0.9 (0.5, 2.1) h, the “Reduction of ADMA-R225-hnRNP-A1 in PBMCs, mean (SE 5.81%)” value ([2]; 100 mg, day 15) was 43.1% and the “Reduction of ADMA-R225-hnRNP-A1 in PBMCs, mean (SE 6.92%)” value ([2]; 200-mg dose group, day 15) was 54.7%. The “Target engagement in the blood” value ([2]; in vivo) was “observed”, the “Increase in cfMMA, mean (SE 11.9%)” value ([3]; 100 mg) was 24.8% and the “Increase in cfSDMA, mean (SE 8.65%)” value ([3]; 100 mg) was 30.2%. For the same compound, the “Reduction in circulating free ADMA, mean (SE 1.98%)” value ([3]; 100 mg) was 22.5%, the “Increase in cfMMA, mean (SE 18.7%)” value ([3]; 200 mg) was 43.8% and the “Increase in cfSDMA, mean (SE 23.8%)” value ([3]; 200 mg) was 39.8%. The “Reduction in circulating free ADMA, mean (SE 7.7%)” value ([3]; 200-mg dose group) was 29.1%, the “Target engagement in tumor biopsies” value [4] was “modest and variable” and the “Mean reduction of ADMA-hnRNP-A1 in tumor biopsies by LC-MS (SE 9.6)” value ([4]; in 4/6 patients) was 18.5%. For the same compound, the “Mean reduction of ADMA-hnRNP-A1 in tumor biopsies by IHC (SE 9.36)” value [5] was 2.08%, the “Safety margin for the steady state AUC” value [6] was 16 fold and the “Safety margin for the steady state Cmax” value [6] was 33 fold. The “Time of maximal decreases in global ADMA levels” value (global ADMA levels) was 72 h, the “Cell lines with cytotoxic responses” value (lymphomas) was 56% and the “Cell lines with cytotoxic responses” value [7] was 50%. The “TEEs reported in preclinical models” value [8] was “no TEEs”.
